This passage reports EC50 results from BindingDB's records for PubMed 33486199 (Queen Mary University of London, 2021).

Broadly, the pEC50 is the negative decadic logarithm of the EC50, by convention in mol/L.

pEC50: −log10 of the molar value.

For the assay, the target named is T1, fMet-Leu-Phe receptor (Homo sapiens, UniProt P21462).
T1 sequence (P21462 whole entry): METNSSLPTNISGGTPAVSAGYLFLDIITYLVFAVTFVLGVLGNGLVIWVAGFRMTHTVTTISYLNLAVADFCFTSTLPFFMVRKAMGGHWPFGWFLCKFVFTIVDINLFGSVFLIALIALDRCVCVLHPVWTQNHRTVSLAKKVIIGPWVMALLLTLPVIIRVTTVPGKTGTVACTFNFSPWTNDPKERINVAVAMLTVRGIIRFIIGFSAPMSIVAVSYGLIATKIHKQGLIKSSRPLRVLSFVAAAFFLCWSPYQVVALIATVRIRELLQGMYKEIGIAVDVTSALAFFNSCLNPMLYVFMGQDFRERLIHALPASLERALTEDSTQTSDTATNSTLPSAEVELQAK
Nature of the assay: Agonist activity at human FPR1 expressed in CHO cells assessed as cAMP level incubated for 1.5 hr by HTRF assay. Background: Cyclic AMP is a second messenger, typically raised through Gs and lowered through Gi signalling.

Turning to `O=C(Nc1ccc(Cl)cc1F)N[C@@H]1CCN(c2ccc(-c3cnn(C(F)F)c3)c(F)c2F)C1=O` [US10676431, Example 79], the pEC50 is below 5.00. As for `CP(C)(=O)c1ccccc1-c1ccc(N2CC(CO)[C@@H](NC(=O)Nc3ccc(Cl)cc3F)C2=O)c(F)c1F` (some centres not stated) [US10676431, Example 125], the figure is below 5.00.
